Assay results as given in ChEMBL document CHEMBL5236632, “Membrane-Active Nonivamide Derivatives as Effective Broad-Spectrum Antimicrobials: Rational Design, Synthesis, and Biological Evaluation” (J Med Chem, 2022).
Converted amounts (≈) assume the structure as drawn. The source made the active and inactive calls. No cut-off for these calls is given here.

Experiments:
[1] = Selectivity ratio, HC50 for hemolytic activity in rabbit RBC to MIC for antibacterial activity against methicillin-resistant Staphylococcus aureus NCTC 10442; type: toxicity; details: rabbit red blood cells
Staphylococcus aureus [2] = experiment: Antibacterial activity against Staphylococcus aureus ATCC 29213 assessed as inhibition of visible growth measured after 18 to 24 hrs by broth dilution method; type: functional; details: time 18-24 hrs
[3] = Selectivity ratio, HC50 for hemolytic activity in rabbit RBC to MIC for antibacterial activity against methicillin-resistant Staphylococcus aureus N315; type: toxicity; details: rabbit red blood cells
Staphylococcus aureus [4] = experiment: Antibacterial activity against methicillin-resistant Staphylococcus aureus N315 assessed as inhibition of visible growth measured after 18 to 24 hrs by broth dilution method; type: functional; details: time 18-24 hrs
Staphylococcus aureus [5] = experiment: Antibacterial activity against methicillin-resistant Staphylococcus aureus NCTC 10442 assessed as inhibition of visible growth measured after 18 to 24 hrs by broth dilution method; type: functional; details: time 18-24 hrs
Escherichia coli = experiment: Antibacterial activity against Escherichia coli ATCC 25922 assessed as inhibition of visible growth measured after 18 to 24 hrs by broth dilution method; type: functional; details: time 18-24 hrs
[6] = Selectivity ratio, HC50 for hemolytic activity in rabbit RBC to MIC for antibacterial activity against Staphylococcus aureus ATCC 29213; type: toxicity; details: rabbit red blood cells
[7] = Haemolytic activity in rabbit red blood cells incubated for 60 mins by k multi-mode reader relative to control; type: toxicity, cell-based, Oryctolagus cuniculus, Erythrocyte; details: rabbit red blood cells
Cell membrane [8] = experiment: Induction of membrane depolarization in Escherichia coli ATCC 25922 assessed as increase in fluorescence intensity at 4 to 8 times MIC measured for 60 mins by DiSC3(5) dye based fluorescence method; type: subcellular
Cell membrane [9] = experiment: Induction of outer membrane permeability in Escherichia coli ATCC 25922 assessed as increase fluoresence intensity at 4 to 8 times of MIC measured for 60 mins by NPN uptake assay; type: subcellular
Cell membrane [10] = experiment: Induction of membrane depolarization in Staphylococcus aureus ATCC 29213 assessed as increase in fluorescence intensity at 4 to 8 times MIC measured for 60 mins by DiSC3(5) dye based fluorescence method; type: subcellular

SMILES	selectivity ratio [1]	MIC (Staphylococcus aureus [2]) [µg/mL]	selectivity ratio [3]	MIC (Staphylococcus aureus [4]) [µg/mL]	MIC (Staphylococcus aureus [5]) [µg/mL]	MIC (Escherichia coli) [µg/mL]	selectivity ratio [6]	HC50 at 1 h [7] [µg/mL]	Activity (Cell membrane [8])	Activity (Cell membrane [9])	Activity (Cell membrane [10])
COc1cc(CNC(=O)CCCC/C=C/C(C)C)ccc1OCCCCCCNC(=N)N	> 32	6.25 (≈ 14 µM)	> 32	3.12 (≈ 7 µM)	3.12 (≈ 7 µM)	> 50	> 32	> 200	–	–	–
CCCCCCCCC(=O)NCc1ccc(OCCCCN(CC)CC)c(OC)c1	–	> 50	–	> 50	> 50	> 50	–	> 200	–	–	–
CCCCCCCCC(=O)NCc1ccc(OCCCCNC(=N)N)c(OCCCCNC(=N)N)c1	> 32	6.25 (≈ 12.4 µM)	> 32	3.12 (≈ 6.18 µM)	3.12 (≈ 6.18 µM)	50 (≈ 98.9 µM)	> 32	> 200	–	–	–
CCCCCCCCC(=O)NCc1ccc(OCC(=O)N[C@@H](CCCNC(=N)N)C(=O)OC)c(OC)c1	> 4	25 (≈ 47.9 µM)	> 4	50 (≈ 95.8 µM)	25 (≈ 47.9 µM)	> 50	> 4	> 200	–	–	–
CCCCCCCCC(=O)NCc1ccc(OCCCCNC(=N)N)c(OC)c1	> 16	12.5 (≈ 30.7 µM)	> 16	6.25 (≈ 15.4 µM)	6.25 (≈ 15.4 µM)	> 50	> 16	> 200	–	–	–
CCCCCCCCC(=O)NCc1ccc(OCCCNC(=N)N)c(OC)c1	> 8	25 (≈ 63.7 µM)	> 8	12.5 (≈ 31.8 µM)	12.5 (≈ 31.8 µM)	> 50	> 8	> 200	–	–	–
CCCCCCCCC(=O)NCc1ccc(OCCCCCCCCNC(=N)N)c(OC)c1	> 128	1.56 (≈ 3.37 µM)	> 128	1.56 (≈ 3.37 µM)	1.56 (≈ 3.37 µM)	> 50	> 128	> 200	–	–	–
CCCCCCCCC(=O)NCc1ccc(OCCCCNCC)c(OC)c1	–	> 50	–	> 50	> 50	> 50	–	> 200	–	–	–
CCCCCCCCC(=O)NCc1ccc(OCCCCCNC(=N)N)c(OC)c1	> 32	6.25 (≈ 14.9 µM)	> 32	6.25 (≈ 14.9 µM)	6.25 (≈ 14.9 µM)	50 (≈ 119 µM)	> 32	> 200	–	–	–
COc1cc(CNC(=O)CCCC/C=C/C(C)C)ccc1OCCCCCCN	–	> 50	–	> 50	> 50	> 50	–	> 200	–	–	–
CCCCCCCCC(=O)NCc1ccc(OCCCCCCNCCN(CCNC(=N)N)CCNC(=N)N)c(OCCCCCCNCCN(CCNC(=N)N)CCNC(=N)N)c1	> 128	1.56 (≈ 1.73 µM)	> 128	1.56 (≈ 1.73 µM)	1.56 (≈ 1.73 µM)	12.5 (≈ 13.8 µM)	> 128	> 200	–	–	–
CCCCCCCCC(=O)NCc1ccc(OCCCCN(CCCN(C)C)CCCN(C)C)c(OC)c1	–	> 50	–	> 50	> 50	> 50	–	> 200	–	–	–
CCCCCCCCC(=O)NCc1ccc(OCCNC(=N)N)c(OC)c1	> 4	50 (≈ 132 µM)	> 4	25 (≈ 66 µM)	25 (≈ 66 µM)	> 50	> 4	> 200	–	–	–
CCN(CC)CCCCOc1ccc(CNC(=O)CCCC/C=C/C(C)C)cc1OC	–	> 50	–	> 50	> 50	> 50	–	> 200	–	–	–
COc1cc(CNC(=O)CCCC/C=C/C(C)C)ccc1OCCCCNC(=N)N	> 32	3.12 (≈ 7.47 µM)	> 32	6.25 (≈ 14.9 µM)	3.12 (≈ 7.47 µM)	50 (≈ 119 µM)	> 32	> 200	–	–	–
COc1cc(CNC(=O)CCCC/C=C/C(C)C)ccc1O [CAPSAICIN]	–	> 50	–	> 50	> 50	> 50	–	> 200	inactive	inactive	inactive
CCCCCCCCC(=O)NCc1ccc(OCCCCCCNC(=N)N)c(OC)c1	> 64	3.12 (≈ 7.19 µM)	> 64	3.12 (≈ 7.19 µM)	1.56 (≈ 3.59 µM)	> 50	> 64	> 200	–	–	–
CCCCCCCCC(=O)NCc1ccc(OCCCCCCCCCCCCNC(=N)N)c(OC)c1	–	> 50	–	25 (≈ 48.2 µM)	25 (≈ 48.2 µM)	> 50	–	> 200	–	–	–
CCCCCCCCC(=O)NCc1ccc(OCC(=O)N[C@@H](CCCNC(=N)N)C(=O)N[C@@H](CCCNC(=N)N)C(=O)N[C@@H](CCCNC(=N)N)C(=O)OC)c(OC)c1	–	> 50	–	> 50	50 (≈ 59.9 µM)	> 50	–	> 200	–	–	–
CCCCCCCCC(=O)NCc1ccc(OCCCCCCNCCN(CCN)CCN)c(OC)c1	> 64	3.12 (≈ 5.99 µM)	> 64	3.12 (≈ 5.99 µM)	3.12 (≈ 5.99 µM)	> 50	> 64	> 200	–	–	–
CCCCCCCCC(=O)NCc1ccc(OCCCCCCN)c(OC)c1	–	> 50	–	> 50	> 50	> 50	–	> 200	–	–	–
CCCCCCCCC(=O)NCc1ccc(O)c(O)c1	–	> 50	–	> 50	> 50	> 50	–	> 200	–	–	–
COc1cc(CNC(=O)CCCC/C=C/C(C)C)ccc1OCCCCCCNCCN(CCNC(=N)N)CCNC(=N)N	> 32	6.25 (≈ 10.1 µM)	> 32	3.12 (≈ 5.06 µM)	3.12 (≈ 5.06 µM)	50 (≈ 80.9 µM)	> 32	> 200	–	–	–
CCCCCCCCC(=O)NCc1ccc(OCCCCN)c(OC)c1	–	> 50	–	> 50	> 50	> 50	–	> 200	–	–	–
CCCCCCCCC(=O)NCc1ccc(OCCCCCCCCCCNC(=N)N)c(OC)c1	> 32	6.25 (≈ 12.7 µM)	> 32	6.25 (≈ 12.7 µM)	6.25 (≈ 12.7 µM)	> 50	> 32	> 200	–	–	–
